According to patent US20260216144A1, “TARGETING MB2 OF THE MYC ONCOGENE AND ITS INTERACTION WITH TRRAP IN CANCER” (priority 2019, published 2026):

Legend:
MYC:TRRAP interaction = MYC:TRRAP interaction (Homo sapiens, UniProt P01106+Q9Y4A5); assay: MYC:TRRAP in-cell luminescence complementation assay (NanoBiT; SmB-MYC 1-190 and TRRAP 2033-2283-LgB in HeLa cells); assay type: cell-based
Description: HeLa cells plated on Greiner 96-well TC-rated white plates with clear bottoms were used for the following measurements. Reverse transfections were carried out using LipoD293™ before cells were plated. A bluescript KS' plasmid (Addgene) was used as carrier DNA for transfections, and a pcDNA3.1 EGFP plasmid (ThermoFisher) was used as a fluorescence reporter. White light-reflecting film (USA Scientific) was used to cover the bottom of the plates for luminescence measurements. Black light-absorbing film was used to cover the top of the plates for fluorescence measurements. All measurements were taken on a SpectraMax i3 instrument (Molecular Devices).
Transfections were carried out with increasing DNA amounts (1-100 ng per well) of a CMV-driven LgB plasmid and SmB in excess or vice-versa. Background luminesce for the usable range and the amount of DNA needed for vast excess of LgB or SmB were noted. Next, complementation with vast excess either LgB or SmB was used to determine the expression of each of the indicated MYC and TRRAP constructs for a range of DNA amounts per well: 10-100 ng. An optimal ratio of DNA to equalize the expression of each MYC and TRRAP pair was calculated. Then, signal-to-noise ratios were calculated for the indicated MYC and TRRAP pairs, and the pair with the highest ratio was chosen. Finally, the chosen pair was used to determine the optimal DNA transfection mixture. It was determined to be 6.7 ng of a plasmid with a MYC construct, 60 ng of a plasmid with a TRRAP construct and 33.3 ng of the pcDNA 3.1 EGFP plasmid, for each well in a 96-well plate. Unless otherwise indicated, these were the ratios of DNA transfected for this type of assay.
HeLa cells were transfected as above using LipoD293™ with a mixture of SmB-MYC 1-190, TRRAP 2033-2283-LgB, and EGFP in CMV-driven plasmids at the same optimized ratio described above. Two days post-transfection, the media in each well was replaced with fresh media containing each compound from the NCI's sets at 25 μM. Cells were incubated for 2 h with each compound, and luminescence and fluorescence measurements were recorded for each well. Changes in luminescence were normalized to fluorescence. The following pre-plated compound sets were obtained from the NCI/DTP chemical repository and used for this screen:
These chemical sets were used to discover novel small-molecule inhibitors of the MYC:TRRAP complex. SmB-MYC 1-190, TRRAP 2033-2283-LgB, and EGFP were transfected into HeLa cells. Two days post-transfection, compounds were added to the media at 25 μM and cells were incubated for 2h. Luminescence and fluorescence were recorded for each well containing one of the compounds. Changes in luminescence measurements were normalized to fluorescence measurements.
Afterwards, only molecules that reduced luminescence levels to <50% RLU were considered. This set of 46 compounds were incubated at 10 μM with vector-expressing cells. Luminescence complementation was measured and repeated in triplicate measurements. In addition, HeLa cells expressing LgB and SmB alone were incubated with the same compounds to rule out potentially artificial results due to inhibition of luciferase or its complementation. Molecules that induces any significant reduction in luminescence (<0.6) during this control assay were not considered further. Of 2947 molecules, 17 were chosen for further testing and ordered from the NCI/DTP Open Chemical Repository. FIG. 16 describes these chosen compounds.
Using the luminescence assay above as a readout for the MYC:TRRAP interaction, we used a robotic liquid handler to evaluate 2987 additional compounds (25 μM). All primary hits were counter-screened for any activity against the luciferase enzyme itself and for any effects on the expression of the fusion proteins. We set a threshold of 50% inhibition to consider compounds further. Only 17 out of 2987 passed all these criteria (0.6%). […]

[1] = biological target: T1, endogenous MYC:TRRAP complex (Homo sapiens, UniProt P01106+Q9Y4A5); assay: co-IP of the endogenous MYC:TRRAP complex from HeLa cells incubated with compounds; assay type: cell-based; conditions: for inhibition of MYC:TRRAP complex formation: luminescence assay and co-IP assay, compared to DMSO vehicle control, FIG. 24A
T1 construct: immunoprecipitation experiments using endogenous full length MYC and TRRAP
T1 sequence (P01106 16-454): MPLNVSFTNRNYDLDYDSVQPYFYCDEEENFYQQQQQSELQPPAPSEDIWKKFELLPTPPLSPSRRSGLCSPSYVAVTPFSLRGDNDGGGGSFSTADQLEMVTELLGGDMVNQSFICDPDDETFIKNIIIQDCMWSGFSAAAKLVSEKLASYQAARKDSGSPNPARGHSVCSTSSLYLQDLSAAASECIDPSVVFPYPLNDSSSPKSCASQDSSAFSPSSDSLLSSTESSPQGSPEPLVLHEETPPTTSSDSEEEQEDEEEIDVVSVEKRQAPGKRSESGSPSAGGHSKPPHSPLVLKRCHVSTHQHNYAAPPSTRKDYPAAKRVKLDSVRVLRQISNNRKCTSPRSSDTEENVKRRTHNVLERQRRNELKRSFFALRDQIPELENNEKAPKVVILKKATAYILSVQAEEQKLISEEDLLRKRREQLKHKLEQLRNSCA
T1 sequence (Q9Y4A5 1-3830 isoform Q9Y4A5-2): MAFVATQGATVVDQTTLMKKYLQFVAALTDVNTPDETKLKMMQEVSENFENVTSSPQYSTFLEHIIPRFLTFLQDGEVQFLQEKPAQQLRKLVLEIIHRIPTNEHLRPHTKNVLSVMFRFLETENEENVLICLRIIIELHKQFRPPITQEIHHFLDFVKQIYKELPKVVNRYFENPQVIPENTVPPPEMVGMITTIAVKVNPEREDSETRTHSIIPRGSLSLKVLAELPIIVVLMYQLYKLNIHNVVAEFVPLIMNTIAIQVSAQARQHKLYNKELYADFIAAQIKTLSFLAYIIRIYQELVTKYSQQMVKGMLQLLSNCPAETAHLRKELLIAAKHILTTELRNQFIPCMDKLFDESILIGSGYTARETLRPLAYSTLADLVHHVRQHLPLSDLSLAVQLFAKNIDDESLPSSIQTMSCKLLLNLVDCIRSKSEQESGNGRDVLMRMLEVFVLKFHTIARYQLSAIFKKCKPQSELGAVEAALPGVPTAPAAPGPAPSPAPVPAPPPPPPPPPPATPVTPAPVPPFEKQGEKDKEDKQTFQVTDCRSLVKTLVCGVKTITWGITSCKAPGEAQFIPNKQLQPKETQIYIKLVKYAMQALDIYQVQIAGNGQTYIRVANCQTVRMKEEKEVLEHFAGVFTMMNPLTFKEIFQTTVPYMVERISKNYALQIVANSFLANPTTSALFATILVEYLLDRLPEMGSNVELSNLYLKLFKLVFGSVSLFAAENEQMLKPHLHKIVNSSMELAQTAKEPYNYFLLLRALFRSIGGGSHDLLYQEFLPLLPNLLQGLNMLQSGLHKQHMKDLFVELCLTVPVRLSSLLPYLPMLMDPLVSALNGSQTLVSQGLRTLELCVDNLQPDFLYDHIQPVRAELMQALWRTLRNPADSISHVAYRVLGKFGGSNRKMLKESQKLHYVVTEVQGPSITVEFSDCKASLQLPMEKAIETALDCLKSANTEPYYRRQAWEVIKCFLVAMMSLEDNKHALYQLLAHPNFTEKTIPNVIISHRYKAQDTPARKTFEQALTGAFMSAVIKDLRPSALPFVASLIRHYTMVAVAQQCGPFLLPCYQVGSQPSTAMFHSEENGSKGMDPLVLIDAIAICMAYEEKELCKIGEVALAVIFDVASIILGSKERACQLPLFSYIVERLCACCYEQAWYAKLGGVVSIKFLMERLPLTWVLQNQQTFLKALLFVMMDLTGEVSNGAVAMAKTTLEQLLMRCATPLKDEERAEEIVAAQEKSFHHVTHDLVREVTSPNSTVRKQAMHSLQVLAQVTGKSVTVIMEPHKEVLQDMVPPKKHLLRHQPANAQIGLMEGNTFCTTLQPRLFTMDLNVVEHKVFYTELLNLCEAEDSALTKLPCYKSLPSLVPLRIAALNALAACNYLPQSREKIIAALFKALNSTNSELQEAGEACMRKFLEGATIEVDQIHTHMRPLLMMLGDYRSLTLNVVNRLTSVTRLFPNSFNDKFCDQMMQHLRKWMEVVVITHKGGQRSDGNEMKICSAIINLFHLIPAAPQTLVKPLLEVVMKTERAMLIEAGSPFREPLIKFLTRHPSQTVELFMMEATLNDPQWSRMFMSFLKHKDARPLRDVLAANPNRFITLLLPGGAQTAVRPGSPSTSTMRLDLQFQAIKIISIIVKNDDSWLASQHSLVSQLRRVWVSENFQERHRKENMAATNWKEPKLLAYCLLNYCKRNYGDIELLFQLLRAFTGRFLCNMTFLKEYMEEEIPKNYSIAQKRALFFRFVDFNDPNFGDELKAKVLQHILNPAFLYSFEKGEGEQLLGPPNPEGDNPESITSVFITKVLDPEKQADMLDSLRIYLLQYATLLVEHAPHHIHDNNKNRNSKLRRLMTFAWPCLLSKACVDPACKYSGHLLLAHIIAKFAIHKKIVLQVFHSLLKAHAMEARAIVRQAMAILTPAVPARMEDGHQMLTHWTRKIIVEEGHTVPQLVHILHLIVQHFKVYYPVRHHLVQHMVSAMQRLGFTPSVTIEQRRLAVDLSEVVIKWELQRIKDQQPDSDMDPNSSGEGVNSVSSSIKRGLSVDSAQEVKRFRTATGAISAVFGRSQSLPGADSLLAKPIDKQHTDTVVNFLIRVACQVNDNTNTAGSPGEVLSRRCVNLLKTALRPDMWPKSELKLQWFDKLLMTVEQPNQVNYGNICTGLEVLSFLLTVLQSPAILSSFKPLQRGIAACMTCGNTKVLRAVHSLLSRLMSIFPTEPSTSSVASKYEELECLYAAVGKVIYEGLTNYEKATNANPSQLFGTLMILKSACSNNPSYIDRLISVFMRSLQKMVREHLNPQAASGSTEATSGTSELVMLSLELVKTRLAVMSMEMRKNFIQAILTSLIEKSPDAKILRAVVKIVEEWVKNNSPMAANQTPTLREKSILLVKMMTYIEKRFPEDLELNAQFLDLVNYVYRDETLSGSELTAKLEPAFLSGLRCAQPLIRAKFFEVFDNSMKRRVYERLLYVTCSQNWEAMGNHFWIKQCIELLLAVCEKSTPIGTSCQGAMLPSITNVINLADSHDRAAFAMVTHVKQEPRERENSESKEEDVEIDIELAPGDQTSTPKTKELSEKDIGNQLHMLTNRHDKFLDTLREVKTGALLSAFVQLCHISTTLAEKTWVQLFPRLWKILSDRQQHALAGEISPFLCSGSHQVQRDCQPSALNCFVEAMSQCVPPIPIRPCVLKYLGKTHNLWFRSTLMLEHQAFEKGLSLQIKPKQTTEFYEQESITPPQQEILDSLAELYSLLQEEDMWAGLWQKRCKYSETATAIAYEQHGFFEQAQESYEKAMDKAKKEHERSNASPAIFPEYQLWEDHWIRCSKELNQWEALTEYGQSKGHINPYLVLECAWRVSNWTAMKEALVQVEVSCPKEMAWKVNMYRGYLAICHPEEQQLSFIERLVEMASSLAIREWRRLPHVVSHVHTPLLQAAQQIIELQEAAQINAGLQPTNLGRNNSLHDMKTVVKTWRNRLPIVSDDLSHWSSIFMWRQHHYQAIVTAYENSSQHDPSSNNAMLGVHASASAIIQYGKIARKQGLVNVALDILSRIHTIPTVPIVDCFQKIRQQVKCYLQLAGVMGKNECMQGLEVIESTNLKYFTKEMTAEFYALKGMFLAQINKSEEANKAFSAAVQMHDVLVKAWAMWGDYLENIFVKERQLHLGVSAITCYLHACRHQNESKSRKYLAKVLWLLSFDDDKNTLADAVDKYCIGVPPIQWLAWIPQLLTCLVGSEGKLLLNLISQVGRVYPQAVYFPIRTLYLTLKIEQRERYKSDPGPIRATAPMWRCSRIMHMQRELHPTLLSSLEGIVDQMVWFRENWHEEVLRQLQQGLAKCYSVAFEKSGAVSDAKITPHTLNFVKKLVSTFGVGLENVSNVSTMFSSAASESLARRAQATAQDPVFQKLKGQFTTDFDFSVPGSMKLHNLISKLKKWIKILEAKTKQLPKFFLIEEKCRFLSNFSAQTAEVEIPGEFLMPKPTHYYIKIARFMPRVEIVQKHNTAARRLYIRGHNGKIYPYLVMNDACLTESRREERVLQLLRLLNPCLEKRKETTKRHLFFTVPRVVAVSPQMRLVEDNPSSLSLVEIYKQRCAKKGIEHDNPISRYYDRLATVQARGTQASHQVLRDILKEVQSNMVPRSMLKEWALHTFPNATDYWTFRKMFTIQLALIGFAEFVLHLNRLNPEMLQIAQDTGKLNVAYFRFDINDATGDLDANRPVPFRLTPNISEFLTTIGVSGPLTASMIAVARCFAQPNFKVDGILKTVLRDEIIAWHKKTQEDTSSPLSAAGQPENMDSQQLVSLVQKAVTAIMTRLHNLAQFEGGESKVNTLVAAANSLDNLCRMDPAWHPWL
Description: FIGS. 23A-23B show the results of co-IP assay experiments comparing the top 17 hits in immunoprecipitation experiments using endogenous full length MYC and TRRAP. In these experiments immunocomplexes were immunoprecipitated with anti-MYC beads in the presence of 25 μM of each of the 17 top compounds. Experiments were carried out in cells (compounds were added to the media of cells) (FIG. 23B) or in vitro (compounds were added directly to the purified complex on pre-washed beads) (FIG. 23A). Immunoprecipitation of TRRAP was normalized to the immunoprecipitation of MYC.
The indicated TRRAP constructs were cloned into a CMV-driven plasmid containing an N-terminal FLAG tag as previously described (23). Full-length wild-type (WT) MYC and MYC ΔMB2 (A129-145), and the indicated MYC constructs were cloned into the same CMV-driven plasmid but containing a Glu-Glu (PYO) tag instead. HEK293T cells were co-transfected with equal amounts of each plasmid using LipoD293™ In vitro DNA Transfection Reagent per protocol (SignaGen). Cells were plated subconfluently 16-20 hours prior to transfection. After 24 hours, cells were lysed in F-buffer (10 mM TRIS pH 7.5, 50 mM NaCl, 30 mM sodium pyrophosphate, […], 10% glycerol, 1% Triton-X, 50 mM NaF) supplemented with 1 mM PMSF, 10 μM Leupeptin, 10 μM Pepstatin-A, and 10 μg/mL Aprotinin for immunoprecipitations and co-immunoprecipitations. Immunoprecipitations were performed using anti-FLAG (Sigma Aldrich), anti-PYO (Covance), or anti-MYC (C33 Santa Cruz Biotechnology) agarose preconjugated beads. Co-immunoprecipitation was analyzed by western blots with the following antibodies: MYC (sc-764 Santa Cruz Biotechnology), TRRAP (A301-132A Bethel Laboratories), FLAG (F7425 Sigma Aldrich), and PYO (Covance).
Co-IP experiments of the endogenous MYC:TRRAP complex were carried out to validate the results from the MYC:TRRAP in-cell luminescence complementation screen performed. HeLa cells were again subjected to the effects of incubation with each of the 17 compounds from FIG. 16 for 2 h before analysis. FIG. 19, FIG. 20, and FIG. 21 present the effects of these compounds on the endogenous MYC:TRRAP and MYC:MAX complexes. Like before, all compounds except for 7 and 11 had no effect on the levels of MYC or TRRAP. […] Incubation with some of the compounds that scored positive by the in-cell luminescence complementation screen had the predicted effect on the endogenous MYC:TRRAP complex. This validates the preliminary compound screen and presents the completion of a major milestone in the effort to therapeutically target MYC in cancer.

[2] = Table 2, compounds with >80% similarity to compound 10 (NSC657456), 10 uM

MYC:TRRAP interaction, sequence (P01106 16-205): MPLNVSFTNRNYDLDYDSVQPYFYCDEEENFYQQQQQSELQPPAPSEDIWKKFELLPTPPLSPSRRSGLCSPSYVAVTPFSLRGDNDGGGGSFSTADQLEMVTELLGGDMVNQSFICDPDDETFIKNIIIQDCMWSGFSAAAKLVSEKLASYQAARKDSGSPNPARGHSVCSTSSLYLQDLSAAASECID
MYC:TRRAP interaction, sequence (Q9Y4A5 2051-2301): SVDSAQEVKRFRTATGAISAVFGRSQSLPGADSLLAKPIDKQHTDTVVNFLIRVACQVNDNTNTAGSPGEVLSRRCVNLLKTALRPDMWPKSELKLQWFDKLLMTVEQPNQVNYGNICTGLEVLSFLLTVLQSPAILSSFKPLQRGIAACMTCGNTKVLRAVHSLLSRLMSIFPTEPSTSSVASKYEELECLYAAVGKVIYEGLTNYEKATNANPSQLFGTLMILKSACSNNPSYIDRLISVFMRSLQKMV

SMILES | % Inhibition 10 uM (MYC:TRRAP interaction; [2]) | also measured
COc1cc(C=C2S/C(=N/Nc3nc(-c4ccc(Br)cc4)cs3)N=C2O)cc(OC)c1OC (stereo in doubt) [Compound 10N, (2E,5Z)-2-[[4-(4-bromophenyl)-1,3-thiazol-2-yl] hydrazinylidene]-5-[(3,4,5-trimethoxy-phenyl)methylidene]-1,3-thiazolidin-4-one] | 88.1% | inhibition of the endogenous MYC:TRRAP interaction ([1]; FIG. 24): do not inhibit the endogenous MYC:TRRAP interaction; inhibition of MYC:TRRAP complex formation [1]: 20%
Oc1[nH]c2ccccc2c1/N=N/c1nc(-c2ccc(Br)cc2)cs1 [Compound 10, 3-[[4-(4-bromophenyl)-1,3-thiazol-2-yl]diazenyl]-1H-indol-2-ol] | 73.56% | % Inhibition 10 uM (MYC:TRRAP interaction; Table 1, 46 primary hits at 10 uM, HeLa cells, triplicate measurements): 58.98%; inhibition of MYC:TRRAP binding (MYC:TRRAP interaction; most consistent inhibition in multiple assays): ~ 50%; inhibitory activity on immunoprecipitation of TRRAP normalized to MYC ([1]; 25 μM, top 17 hits, in cells or in vitro, FIG. 23A-23B): greatest inhibitory activity; inhibition of MYC:TRRAP complex formation [1]: 70%
CCOC(=O)/N=N/c1c(O)[nH]c2ccccc12 [Compound 1014, ethyl N-[(2-hydroxy-1H-indol-3-yl)imino] carbamate] | 107.3% | –
N=C(S)/N=N/c1c(O)[nH]c2cccc(C(F)(F)F)c12 [Compound 1015, [2-hydroxy-4-(trifluoro-methyl)-1H-indol-3-yl]iminothiourea] | 82.44% | –
O=C1CSC(/N=N/c2c(O)[nH]c3ccccc23)=N1 [Compound 1016, 2-[(2-hydroxy-1H-indol-3-yl)diazenyl]-1,3-thiazol-4-one] | 104.5% | –
N#CC(=N)/C(C#N)=N/c1c(O)[nH]c2ccccc12 [Compound 1017, N′-(2-hydroxy-1H-indol-3-yl)ethane-diimidoyl dicyanide] | 89.13% | –
C=CC/N=C(S)/N=N/c1c(O)[nH]c2ccccc12 [Compound 1018] | 77.04% | –
O=C(/N=N/c1c(O)[nH]c2ccccc12)C(F)(F)F [Compound 1019, 2,2,2-trifluoro-N-[(2-hydroxy-1H-indol-3-yl)imino] acetamide] | 82.34% | –
Oc1[nH]c2ccccc2c1/N=N/C1=NCCN1 [Compound 1020, 3-(4,5-dihydro-1H-imidazol-2-yldiazenyl)-1H-indol-2-ol] | 91.72% | –
Nn1c(S)nnc1/N=N/c1c(O)[nH]c2ccccc12 [Compound 1021, 4-amino-3-[(2-hydroxy-1H-indol-3-yl)diazenyl]-1H-1,2,4-triazole-5-thione] | 71.88% | –
O=[N+]([O-])c1cccc(-c2csc(/N=N/c3c(O)[nH]c4ccccc34)n2)c1 [Compound 1022, 3-[[4-(3-nitrophenyl)-1,3-thiazol-2-yl]diazenyl]-1H-indol-2-ol] | 54.58% | –
O=[N+]([O-])c1ccc(-c2csc(N=Nc3c(O)[nH]c4ccccc34)n2)cc1 [Compound 1023, 3-[[4-(4-nitrophenyl)-1,3-thiazol-2-yl]diazenyl]-1H-indol-2-ol] | 47.93% | –
Oc1[nH]c2ccccc2c1/N=N/c1nc(-c2ccc(Cl)c(Cl)c2)cs1 [Compound 1025, 3-[[4-(3,4-dichlorophenyl)-1,3-thiazol-2-yl]diazenyl]-1H-indol-2-ol] | 53.24% | –
CCOC(=O)Cc1csc(/N=N/c2c(O)[nH]c3ccccc23)n1 [Compound 1026, ethyl 2-[2-[(2-hydroxy-1H-indol-3-yl)diazenyl]-1,3-thiazol-4-yl] acetate] | 59.51% | –
Cc1sc(/N=N/c2c(O)[nH]c3ccccc23)nc1-c1ccccc1 [Compound 1027, 3-[(5-methyl-4-phenyl-1,3-thiazol-2-yl)diazenyl]-1H-indol-2-ol] | 50.66% | –

More lines, main results first:

% Inhibition 10 uM (MYC:TRRAP interaction; [2]) | SMILES | also measured
97.46% | O=C(Cc1csc(/N=N/c2c(O)[nH]c3ccccc23)n1)Nc1ccccc1 [Compound 1028, 2-[2-[(2-hydroxy-1H-indol-3-yl)diazenyl]-1,3-thiazol-4-y]-N-phenylacetamide] | –
98.07% | Cc1ccccc1NC(=O)Cc1csc(/N=N/c2c(O)[nH]c3ccccc23)n1 [Compound 1029] | –
88.62% | CCCNC(=S)N=Nc1c(O)[nH]c2ccccc12 [Compound 1032, 1-[(2-hydroxy-1H-indol-3-yl)imino]-3-propylthiourea] | –
86.96% | Oc1[nH]c2ccccc2c1/N=N/C(=S)N1CCCC1 [Compound 1033, N-((2-hydroxy-1H-indol-3-yl)imino] pyrrolidine-1-carbothioamide] | –
111.9% | Cc1ccccc1/N=C(S)/N=N/c1c(O)[nH]c2ccccc12 [Compound 1034, 1-[(2-hydroxy-1H-indol-3-yl)imino]-3-(2-methylphenyl) thiourea] | –
82.12% | Cc1cccc(/N=C(S)/N=N/c2c(O)[nH]c3ccccc23)c1 [Compound 1035, 1-[(2-hydroxy-1H-indol-3-yl)imino]-3-(3-methylphenyl) thiourea] | –
86.98% | Cc1ccc(/N=C(S)/N=N/c2c(O)[nH]c3ccccc23)cc1 [Compound 1036] | –
85.49% | Oc1[nH]c2ccccc2c1/N=N/C1=NCCCCN1 [Compound 1037, 3-(4,5,6,7-tetrahydro-1H-1,3-diazepin-2-yldiazenyl)-1H-indol-2-ol; hydroiodide] | –
86.67% | O=C(Cc1ccccc1)/N=N/c1c(O)[nH]c2ccccc12 [Compound 1038, N-((2-hydroxy-1H-indol-3-yl)imino]-2-phenylacetamide] | –
59.84% | c1ccc2c(c1)=NOc1[nH]c3ccccc3c1N=2 [Compound 1039, 5H-indolo[2,3-c][2,1,5]ben-zoxadiazepine] | –
